Test results: patent US10028992B2, “Methods of treating muscular dystrophy” (BOARD OF REGENTS OF THE NEVADA SYSTEM OF HIGHER EDUCATION …, priority 2012, dated 2018)

Tested on: α7 integrin promoter
Experiment: muscle cell-based assay: α7βgal+/− myoblasts/myotubes, LacZ reporter, β-galactosidase cleavage of FDG
Set-up: species or system mouse; Results in α7+/− β-galactosidase assay: scale not given here
Details: for Results in α7+/− β-galactosidase assay / Result in α7+/− β-galactosidase assay: Myoblasts; for Results in a α7+/− β-galactosidase assay, Myotubes, 0.5 uM: compound at 0.5 uM; for Results in a α7+/− β-galactosidase assay, Myotubes, 1 uM: compound at 1 uM; for Results in a α7+/− β-galactosidase assay, Myotubes, 5 uM: compound at 5 uM; for Results in a α7+/− β-galactosidase assay, Myotubes, 10 uM: compound at 10 uM; for Results in a α7+/− β-galactosidase assay, Myotubes, 20 uM: compound at 20 uM; for Results in a α7+/− β-galactosidase assay, Myotubes, 40 uM: compound at 40 uM; for EC50: given as log AC50 (negative values), read-out: Fit LogAC50 (converted); for Fit Curve Class: key not given; for AC50: log of AC50, given with negative sign, unit of AC50 not given, read-out: Fit Log AC50 (converted)
Experimental: An α7 integrin null mouse was produced in which exon 1 of the gene encoding the α7 integrin was replaced by the LacZ reporter. In these mice, all the transcriptional regulatory elements of the α7 integrin promoter were retained, allowing β-galactosidase to report expression of 7 integrin. A primary myoblast cell line (designated α7βgal^+/−) isolated from 10 day old α7^+/− pups were analyzed for the ability of β-galactosidase to report α7 integrin expression. α7βgal^+/− myoblasts were differentiated and subjected to X-gal staining and western analysis (FIGS. 1A and 1B).
The activity of the α7 integrin promoter was measured by β-galactosidase cleavage of the non-fluorescent compound fluorescein di-β-D-galactopyranoside (FDG) to fluorescein. This assay was used to screen compound libraries to identify molecules that up-regulate α7 integrin expression in muscle.
Also evaluated was the effect of various isoforms of laminin and the ligand for α7β1 integrin on integrin expression. Positive hits were subjected to dose-response analysis, western analysis and a myostatin counterscreen (a negative regulator of muscle growth).

[1] = curve fit, activity at zero concentration
[2] = Table 12, fitted activity at zero concentration
[3] = Table 12 Compound data, concentration-response curve fit

SMILES | Results in a α7+/− β-galactosidase assay, Myotubes, 0.5 uM | Results in a α7+/− β-galactosidase assay, Myotubes, 1 uM | Results in a α7+/− β-galactosidase assay, Myotubes, 5 uM | Results in a α7+/− β-galactosidase assay, Myotubes, 10 uM | Results in a α7+/− β-galactosidase assay, Myotubes, 20 uM | Results in a α7+/− β-galactosidase assay, Myotubes, 40 uM | other results
O=c1c2cc(-c3ccccc3)sc2nc2n1N=C(c1ccccc1)CS2 [drawing 693] | – | – | – | – | – | – | Results in α7+/− β-galactosidase assay (0.5 uM): −0.04703; Results in α7+/− β-galactosidase assay (1 uM): −0.001; Results in α7+/− β-galactosidase assay (5 uM): 0.1857; Results in α7+/− β-galactosidase assay (10 uM): 0.01009; Results in α7+/− β-galactosidase assay (20 uM): 0.0113; Results in α7+/− β-galactosidase assay (40 uM): 0.00476
CC(=O)Nc1ccc(-n2c(C)nc(=O)c(-c3ccccc3)c2C)cc1 [drawing 460] | −0.1626 | −0.1764 | −0.2443 | −0.1679 | −0.3617 | −0.505 | –
CCCOc1nc(SCCC)nc2c1cnn2-c1ccccc1 [Compound 178] | – | – | – | – | – | – | EC50 (Mus musculus): 11.2 µM; Score (Table 12 compound data): 42; Fit Curve Class (curve class number): 2.1; Fit HillSlope (curve fit): 1.1341; Fit Zero Activity [%] [1]: −22.6542%
CCCCNc1nnc(SCC(=O)c2c(N)n(CCC)c(=O)[nH]c2=O)s1 [Compound 69] | – | – | – | – | – | – | AC50 (Mus musculus, Table 12): 3.98 µM; Fit HillSlope (Table 12, curve fit): 1.3987; Fit Zero Activity [%] [2]: −2.436%; Fit Curve Class (Table 12): 2.1; Score [3]: 44
O=c1c2cc(-c3ccccc3)sc2nc2n1N=C(c1ccccc1)CS2 [drawing 485] | 0.02668 | −0.1163 | 0.0299 | −0.3812 | −0.1377 | −0.1734 | –
C/C(=N\NC(=O)c1cc(C)oc1C)c1ccc2ccccc2c1 [drawing 444] | −0.05394 | −0.1247 | 0.2514 | −0.05957 | −0.1231 | −0.2807 | –
COc1ccc(-c2cc(COc3ccccc3)on2)cc1 [Compound 188] | – | – | – | – | – | – | EC50 (Mus musculus): 10 µM; Score (Table 12 compound data): 42; Fit Curve Class (curve class number): 2.1; Fit HillSlope (curve fit): 4.5045; Fit Zero Activity [%] [1]: 0.195%
CC1(C)Cc2ccccc2-c2nc3n(c(=O)c21)CCS3 [drawing 380] | 0.09354 | 0.08602 | −0.04079 | −0.05719 | −0.329 | −0.421 | –
O=C1Nc2ccccc2/C1=C/c1ccccc1Cl [drawing 529] | – | – | – | – | – | – | Results in α7+/− β-galactosidase assay (0.5 uM): 0.2214; Results in α7+/− β-galactosidase assay (1 uM): 0.2193; Results in α7+/− β-galactosidase assay (5 uM): −0.03271; Results in α7+/− β-galactosidase assay (10 uM): −0.1355; Results in α7+/− β-galactosidase assay (20 uM): −0.2535; Results in α7+/− β-galactosidase assay (40 uM): −0.6555
COC(=O)c1cc(S(=O)(=O)NCC2CCN(Cc3ccc(Cl)cc3)CC2)cn1C [drawing 464] | −0.00414 | −0.05118 | −0.09401 | −0.08097 | −0.09607 | −0.07382 | –
CCc1nnc(NC(=O)c2ccc(S(=O)(=O)NCC(C)C)cc2)s1 [Compound 66] | – | – | – | – | – | – | AC50 (Mus musculus, Table 12): 12.6 µM; Fit HillSlope (Table 12, curve fit): 4.5045; Fit Zero Activity [%] [2]: 11.9175%; Fit Curve Class (Table 12): 2.1; Score [3]: 45
CC1Cc2ccccc2N1C(=O)CSc1nnc(N)s1 (centres unmarked) [drawing 423] | −0.03474 | −0.1188 | −0.01338 | 0.3723 | −0.1603 | 0.2399 | –
COC(=O)c1ccc(C2C(C(=O)c3cc4ccccc4o3)=C(O)C(=O)N2CCN2CCOCC2)cc1 (centres unmarked) [Compound 141] | – | – | – | – | – | – | EC50 (Mus musculus): 10 µM; Score (Table 12 compound data): 42; Fit Curve Class (curve class number): 2.1; Fit HillSlope (curve fit): 4.9549; Fit Zero Activity [%] [1]: −17.8968%
CC(C)N(CCO)C(=O)CCc1nnc(CCCc2ccccc2)o1 [Compound 199] | – | – | – | – | – | – | EC50 (Mus musculus): 12.6 µM; Score (Table 12 compound data): 42; Fit Curve Class (curve class number): 2.2; Fit HillSlope (curve fit): 1.2876; Fit Zero Activity [%] [1]: 0.1862%
CCN(CC)CCNC(=O)c1c(C)[nH]c(CC2C(=O)Nc3ccc(F)cc32)c1C (centres unmarked) [drawing 723] | – | – | – | – | – | – | Result in α7+/− β-galactosidase assay (0.5 uM): 0.02287; Result in α7+/− β-galactosidase assay (1 uM): 0.01135; Result in α7+/− β-galactosidase assay (5 uM): −0.471; Result in α7+/− β-galactosidase assay (10 uM): −0.913; Result in α7+/− β-galactosidase assay (20 uM): −0.9852; Result in α7+/− β-galactosidase assay (40 uM): −0.9864
C=CCc1c(C)nc(-c2ccccc2)nc1N/N=C(\C)c1ccc(N)cc1 [drawing 454] | −0.04135 | −0.05977 | −0.2067 | 0.05284 | −0.1823 | 0.1021 | –
CCOC(=O)c1cc(-c2cccs2)nc2c1c(C)nn2-c1ccccn1 [drawing 670] | – | – | – | – | – | – | Results in α7+/− β-galactosidase assay (0.5 uM): 0.09738; Results in α7+/− β-galactosidase assay (1 uM): 0.1342; Results in α7+/− β-galactosidase assay (5 uM): −0.1204; Results in α7+/− β-galactosidase assay (10 uM): −0.2068; Results in α7+/− β-galactosidase assay (20 uM): −0.3072; Results in α7+/− β-galactosidase assay (40 uM): −0.5198
CC(NC(=O)c1ccc(C(C)(C)C)cc1)C(c1cccs1)N1CCOCC1 (centres unmarked) [drawing 610] | – | – | – | – | – | – | Results in α7+/− β-galactosidase assay (0.5 uM): 0.08931; Results in α7+/− β-galactosidase assay (1 uM): 0.1802; Results in α7+/− β-galactosidase assay (5 uM): 0.07478; Results in α7+/− β-galactosidase assay (10 uM): −0.02239; Results in α7+/− β-galactosidase assay (20 uM): −0.1131; Results in α7+/− β-galactosidase assay (40 uM): −0.1382
Cc1ccc2c(c1)/C(=C/c1ccccc1)C(=O)N2 [drawing 457] | −0.1541 | −0.09775 | −0.09703 | 0.151 | −0.411 | −0.4149 | –
CCc1c(C)sc(NC(=O)c2ccco2)c1C#N [drawing 319] | −0.09933 | −0.00083 | 0.02008 | 0.1359 | −0.1945 | −0.05014 | –
COc1ccc(OC)c(S(=O)(=O)Nc2c(NC3CCCCC3)c3ccccc3oc2=O)c1 [drawing 448] | 0.01269 | −0.0336 | 0.04486 | −0.2638 | −0.05892 | −0.2063 | –
CCN(CC)CCNC(=O)c1c(C)[nH]c(CC2C(=O)Nc3ccc(F)cc32)c1C (centres unmarked) [drawing 507] | −0.07384 | −0.08032 | −0.9266 | −1.896 | −0.9097 | −0.9224 | –
CCc1nc2ccccc2c(C(=O)NCc2ccccc2)c1C [drawing 461] | −0.0989 | −0.1627 | 0.438 | 0.1173 | −0.1092 | 0.1436 | –
O=C(NCc1ccccc1)C(c1c(F)cccc1Cl)N(C(=O)c1csnn1)C1CC1 (centres unmarked) [drawing 430] | 0.2226 | −0.02073 | −0.2107 | −0.07084 | −0.182 | −0.2594 | –
CCc1ccc(N(C(=O)c2snc(C(N)=O)c2N)C(C(=O)NC2CCCC2)c2ccco2)cc1 (centres unmarked) [Compound 17] | – | – | – | – | – | – | AC50 (Mus musculus, Table 12): 2.51 µM; Emax (Mus musculus, read-out: Max Response [%]): 67.6%; Fit HillSlope (Table 12, curve fit): 1.2475; Fit Zero Activity [%] [2]: −24.7641%; Fit Curve Class (Table 12): 1.1; Score [3]: 84
COc1ccc(CCNC(=O)Cn2nnc(C(=O)Nc3ccc(Br)cc3)c2N)cc1OC [Compound 148] | – | – | – | – | – | – | EC50 (Mus musculus): 11.2 µM; Score (Table 12 compound data): 42; Fit Curve Class (curve class number): 2.1; Fit HillSlope (curve fit): 2.3531; Fit Zero Activity [%] [1]: −28.7719%
